Consider six compounds from patent US6166066A, “Cannabinoids selective for the CB2 receptor” (The University of Connecticut, priority 1999, dated 2000).

The target of assay [1] is T1, CB1 receptor (Rattus norvegicus, UniProt P20272).
T1 construct: rat forebrain membranes as a source of CB1; from tissue; host or cells: rat brain membranes (called forebrain; prepared from whole brains minus the cerebral cortex)
Briefly: Radioligand binding assay ([H^3]CP-55,940), rat forebrain membranes as source of CB1. As to conditions: 0.8 nM [H^3]CP-55,940, 30° C., 1 hour, Ki from IC50 (Cheng and Prusoff). As for the experimental part:
The binding affinities of the novel compounds described in this invention for the central cannabinoid receptor were assessed using rat forebrain membranes as a source of CB1. Membranes were prepared as described by the method of Dodd et al., Brain Res. 226:107 (1981), the entire teachings of which are incorporated herein by reference. Rat whole brains minus the cerebral cortex were diced with a razor blade and homogenized in 0.32 M sucrose, pH 7.4. The resulting suspension was spun at 400×g at 4° C. The supernatant was decanted and layered over 1.2 M sucrose in TME buffer (25 mM Tris base, 5 mM MgCl2 1 mMEDTA, pH 7.4) and spun at 109,000×g. The interface containing plasma membrane protein was collected, pooled and layered over 0.8 M sucrose in TME, pH 7.4. The pellet was carefully resuspended in TME, pH 7.4 and the total protein content was assayed by the method of Markwell et al., Anal. Biochem. 87:206 (1978), the entire teachings of which are incorporated herein by reference. Protein was aliquotted, frozen under liquid nitrogen and stored at -80° C. until use.
(§1) Approximately 30 μg of tissue was incubated in silanized 96 well microtiter plate with TME containing 0.1% essentially fatty acid free bovine serum albumin (BSA), 0.8 nM [H^3 ]CP-55,940 and various concentrations of the test compound in a final volume of 200 μL. Assays were incubated at 30° C. for 1 hour. The samples were filtered using Packard Filtermate 196 and Whatman GF/C Filterplates and washed with wash buffer (TME) containing 0.5% BSA. Radioactivity was detected using MicroScint 20 scintillation cocktail added directly to the dried filterplates, and the filterplates were counted using a Packard Instruments Top-Count. Nonspecific binding was assessed using 100 nM CP-55,940. Data collected from three independent experiments performed with duplicate determinations were normalized between 100% and 0% specific binding for [H^3 ]CP-55,940, determined using buffer and 100 nM CP-55,940. The normalized data was analyzed using a 4 parameter nonlinear logistic equation to yield IC50 values. Data from at least two independent experiments performed in duplicate were used to calculate IC50 values which were convered to Ki values using the assumptions of Cheng and Prusoff, Biochem. Pharmacol. 22:3099 (1973), the entire teachings of which are incorporated by reference.

The target of assay [2] is T2, CB2 receptor (Mus musculus, UniProt P47936).
T2 construct: Mouse spleen was used as a source of CB2 receptors; from tissue; host or cells: mouse spleen
T2 sequence (P47936 whole entry): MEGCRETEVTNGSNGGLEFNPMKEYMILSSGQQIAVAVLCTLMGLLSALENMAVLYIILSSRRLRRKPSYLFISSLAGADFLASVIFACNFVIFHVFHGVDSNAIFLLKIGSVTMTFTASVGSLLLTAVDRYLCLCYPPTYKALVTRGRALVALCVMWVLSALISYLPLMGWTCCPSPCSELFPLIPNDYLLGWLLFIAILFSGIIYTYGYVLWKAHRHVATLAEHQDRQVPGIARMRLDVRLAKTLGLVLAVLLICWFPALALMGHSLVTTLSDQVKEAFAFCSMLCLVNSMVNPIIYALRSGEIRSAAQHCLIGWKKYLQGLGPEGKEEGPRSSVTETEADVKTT
Briefly: Radioligand binding assay ([H^3]CP-55,940), mouse spleen as source of CB2. As to conditions: for Ki: mouse spleen, conducted in the same manner as for CB1, Ki from IC50 (Cheng and Prusoff). The method, then: as §1
Mouse spleen was used as a source of CB2 receptors to assess binding affinity of analogs described in this invention. The CB2 binding assay was conducted in the same manner as for CB1. Silanized centrifuge tubes were used throughout to minimize receptor loss due to adsorption.

For assay [3], the system named is CB1 receptor. As to conditions: in the brain; background; cited from earlier work.
The subject of assay [4] is CB2 receptor. As to conditions: in the spleen; background; cited from earlier work.

T1 sequence (P20272 whole entry): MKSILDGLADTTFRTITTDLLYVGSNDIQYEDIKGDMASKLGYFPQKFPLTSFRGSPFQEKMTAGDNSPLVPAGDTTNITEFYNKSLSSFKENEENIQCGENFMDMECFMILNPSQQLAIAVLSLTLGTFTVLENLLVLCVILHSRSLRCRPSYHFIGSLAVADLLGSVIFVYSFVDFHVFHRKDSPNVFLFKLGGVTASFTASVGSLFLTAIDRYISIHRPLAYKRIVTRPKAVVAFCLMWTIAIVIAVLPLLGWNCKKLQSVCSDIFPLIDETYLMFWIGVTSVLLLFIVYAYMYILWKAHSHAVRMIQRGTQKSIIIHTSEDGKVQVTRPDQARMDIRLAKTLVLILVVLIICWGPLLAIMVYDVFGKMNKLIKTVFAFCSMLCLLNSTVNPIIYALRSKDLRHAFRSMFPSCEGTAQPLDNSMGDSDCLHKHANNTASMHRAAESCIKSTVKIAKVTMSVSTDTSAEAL

`CCCCCCC1CCc2cc(O)c3c(c2C1)OC(C)(C)C1CC=C(C)CC31` (stereo not shown) [AM855]: the inhibition constant (Ki) in assay [1] amounted to 22.3 nM; in assay [2] it was 58.6 nM.
The corresponding values for `CC1=CCC2C(C1)c1c(cc3c(c1O)C1CC(CCC1C)C3(C)C)OC2(C)C` (stereo not shown) [AM725] are 360000 nM and 281 nM.
The corresponding values for `CCCCCC1CCc2c(cc3c(c2O)C2CC(C)=CCC2C(C)(C)O3)C1` (stereo not shown) [AM856] are 402 nM and 162 nM.
Turning to `CCCCCCC1CCCc2c1cc(O)c1c2OC(C)(C)C2CC=C(C)CC12` (stereo not shown) [AM858], the inhibition constant (Ki) in assay [1] is 524 nM; in assay [2] it was 456 nM.
Consider `CC1=CCC2C(C1)c1c(cc3c(c1O)C1CC(CCC1C)C3(C)C)OC2(C)C` (stereo not shown) [AM724], for which the Ki in assay [1] was determined as 6880 nM; in assay [2], 16.9 nM. In addition, the “affinity for the CB2 receptor relative to the CB1 receptor” value in assay [2] (CB2 (mouse spleen) versus CB1 (rat forebrain)) is on record as “about 400 times”.
Take `CCCCCc1cc(O)c2c(c1)OC(C)(C)C1CC=C(C)CC21` (single isomer, unassigned) [Δ^8 -Tetrahydrocannabinol]: the “binding to the CB1 receptor” value in assay [3] is reported as “binds”. Further, in assay [4], the “binding to the CB2 receptor” value was “binds”.
